Data as given in patent US20140038953A1, “COMPOSITIONS AND METHODS FOR CARDIOVASCULAR DISEASE” (THE GENERAL HOSPITAL CORPORATION, priority 2011, published 2014).
Entries after “also recorded” stand apart in the source; their conditions may differ.

Columns and labels:
LDLR−/− mice [1] = assay: Vascular calcification in LDLR−/− mice on high fat diet (Osteosense, Alizarin red); type: in vivo; conditions: high fat diet 20 weeks, 2.5 mg/kg ip daily, vs vehicle
Description: Fluorescence reflectance imaging (FRI), was performed as previously described. (Aikawa, E., et al. Osteogenesis associates with inflammation in early-stage atherosclerosis evaluated by molecular imaging in vivo. Circulation 116, 2841-2850 (2007); and Aikawa, E., et al. Multimodality molecular imaging identifies proteolytic and osteogenic activities in early aortic valve disease. Circulation 115, 377-386 (2007).) Animals received 150 μl of OsteoSense 680 and 150 μl of ProSense 750 via tail vein injection 24 hours before euthanasia. After dissection, aortae were subjected to ex vivo near infrared fluorescence reflectance imaging using an Odyssey Imaging System (LI-COR Biotechnology, Lincoln, Nebr.), with integrated signal intensities determined for regions of interest using software version 3.0.16.
Aortas were either immediately embedded and cryopreserved using optimal cutting-temperature medium (Sakura Tissue-Tek, Zoeterwoude, The Netherlands) or fixed in paraformaldehyde and embedded in parafin. The presence of calcification was determined by staining tissue sections with Alizarin red or Von Kossa. Lipid accumulation in tissue sections was visualized by staining with Oil Red O. Liver sections were prepared from paraformaldehyde-fixed tissue and stained with hematoxylin and eosin. […]

LDLR−/− mice [2] = assay: Vascular inflammation / macrophage activity in LDLR−/− mice (Prosense, MAC2); type: in vivo; conditions: for vascular inflammation / macrophage activity (Prosense): high fat diet 20 weeks, 2.5 mg/kg ip daily, vs vehicle, 2.5 mg/kg
Description: Fluorescence reflectance imaging (FRI), was performed as previously described. […] After dissection, aortae were subjected to ex vivo near infrared fluorescence reflectance imaging using an Odyssey Imaging System (LI-COR Biotechnology, Lincoln, Nebr.), with integrated signal intensities determined for regions of interest using software version 3.0.16.
For immunofluorescence, frozen sections were post-fixed in cold methanol and incubated with polyclonal antibodies specific for p-SMAD1/5/8 (1:100, Cell Signaling, Danvers, Mass.) or MAC2 (1:100, Cedarlane, Burlington, ON) followed by FITC labeled Goat Anti-Rabbit IgG or Rhodamine Goat Anti-Rat IgG (both Jackson Immuno Research, West Grove, Pa.), respectively.
Mice were injected with Osteosense (to label sites of bone-forming activity via osteoblast binding of this probe) and Prosense (to label sites of macrophage-mediated inflammation). Aortae were explanted and subjected to fluorescence reflectance imaging (LICOR Odyssey imager).
Inflammatory activity, a surrogate of atherosclerotic plaque burden, was assessed by near-IR fluorescence of Prosense (fluor-cathepsin substrate) at […]. Ten individual mice were used in each treatment group.
Inflammatory activity, a surrogate of atherosclerotic plaque burden, was assessed by integrated intensity of near-IR fluorescence of Prosense (fluor-cathepsin substrate) at […].
Each treatment group consisted of a total of 10 mice. After 4 weeks of atherogenic diet and drug or vehicle treatment, the animals were sacrificed. The frontal plane sections of the aortic arch were dissected out and stained for macrophage marker (MAC2) and counterstained with DAPI.

[3] = Body weight, food intake and bone mineral density in LDLR−/− mice; type: in vivo; conditions: 2.5 mg/kg ip daily, vs vehicle
HMG-CoA reductase = target: T1, HMG-CoA reductase (Homo sapiens, UniProt P04035); assay: HMG-CoA reductase activity assay; type: biochemical; conditions: compound 13 at 50 nM and 100 nM
T1 construct: purchased Sigma-Aldrich CS1090
T1 sequence (P04035 426-888 limits assumed): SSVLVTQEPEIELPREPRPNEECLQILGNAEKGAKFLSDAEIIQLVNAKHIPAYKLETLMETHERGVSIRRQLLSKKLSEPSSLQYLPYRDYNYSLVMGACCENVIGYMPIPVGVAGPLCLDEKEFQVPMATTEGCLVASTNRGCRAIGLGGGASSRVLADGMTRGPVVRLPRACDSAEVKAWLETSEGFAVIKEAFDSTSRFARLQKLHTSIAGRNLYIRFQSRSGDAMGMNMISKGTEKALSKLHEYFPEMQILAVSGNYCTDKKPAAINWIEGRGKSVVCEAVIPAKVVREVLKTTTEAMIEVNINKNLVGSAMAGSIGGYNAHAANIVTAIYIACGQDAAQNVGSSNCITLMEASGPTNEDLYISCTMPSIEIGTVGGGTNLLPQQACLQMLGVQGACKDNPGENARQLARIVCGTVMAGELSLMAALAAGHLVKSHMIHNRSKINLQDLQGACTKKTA
From the text: Enzyme activity was quantified using a commercially available Assay Kit (CS1090 HMG-CoA Reductase Kit, Sigma-Aldrich, St. Louis, Mo.)

HepG2 cells = assay: ApoB-100 secretion in HepG2 cells (ELISA); type: cell-based, human; conditions: compound 13 100 nM, atorvastatin 1 nM, ALK3-Fc 400 ng/mL
Description: Hepatoma G2 (HepG2) cells and human aortic endothelial cells (HAECs) were purchased from the American type culture collection (Manassas, Va.). HepG2 cells were maintained in Eagle's Minimum Essential Medium (EMEM) supplemented with 10% fetal bovine serum, 100 units/ml of penicillin, 0.1 mg/ml of streptomycin and glutamine. HAECs were cultured in endothelial cell basal medium (EBM 2) supplemented with the EBM2 bullet kit (Lonza, Basel, Switzerland). For experiments, cells were seeded into 6 or 12-well plates (BD Falcon, Franklin Lakes, N.J.) at a concentration of 0.5×10^6 cells per 5 mL of media. HAECs were maintained in EBM 2 with 0.1% FBS without additional growth factors for all experiments. HepG2 cells were grown to 70% confluence before they were incubated in EMEM enriched with 0.1% FBS. ApoB-100 measurements were performed in supernatants from HepG2 that had been incubated in EMEM containing 0.5% bovine serum albumin using a commercially available Human ApoB-100 ELISA kit (Mabtech AB, Nacka Strand, Sweden). BMP2 protein measurements were performed in supernatants from HAECs that had been incubated in EBM2 containing 0.1% FBS using a BMP2 ELISA kit (R&D Systems).

[4] = listed as BMP inhibitor positive control compound
[5] = high fat diet and treatment 6 weeks, compound 13 2.5 mg/kg ip daily, ALK3-Fc 2 mg/kg ip every other day

With `c1ccc2c(-c3cnn4cc(-c5ccc(N6CCNCC6)cc5)cnc34)ccnc2c1` [Compound 13, 4-[6-(4-piperazin-1-ylphenyl)pyrazolo[1,5-a]pyrimidin-3-yl]quinoline] the “vascular calcification / osteogenic activity (fluor-labeled bisphosphonate uptake, Alizarin red)” value (LDLR−/− mice [1]) was “significantly less abundant; also recorded: reduced vascular calcification throughout the aortae; also recorded: severely diminished evidence of osteogenesis”, the “vascular calcification / osteogenic activity (fluor-labeled bisphosphonate uptake, Alizarin red)” value (LDLR−/− mice [1]; [4]) was “can reduce vascular calcification” and the “MAC2 staining of aortic arch” value (LDLR−/− mice [2]; atherogenic diet and treatment 4 weeks, compound 13 2.5 mg/kg IP daily, ALK3-Fc 2 mg/kg IP every other day) was “decreased staining for MAC2”. For the same compound, the “vascular inflammation / macrophage activity (Prosense)” value (LDLR−/− mice [2]) was “marked reduction in vascular inflammation; also recorded: severely diminished evidence of macrophage activity”, the “vascular inflammation / macrophage activity (Prosense)” value (LDLR−/− mice [2]; [4]) was “can reduce vascular calcification and vascular inflammation” and the “foam cell accumulation / macrophage burden (MAC2)” value (LDLR−/− mice [2]; [5]) was “inhibited foam cell accumulation”. The “macrophage / cathepsin activity in aorta (Prosense)” value (LDLR−/− mice [2]; [5]) was “as did treatment with compound 13; also recorded: significantly reduced; also recorded: significantly inhibited”, the “food intake per gram body weight” value ([3]; 6 weeks high fat diet, 2.5 mg/kg) was “did not differ significantly; also recorded: not associated with a reduction in body weight or food intake” and the body weight ([3]; 20 weeks high fat diet, 2.5 mg/kg) was “did not differ significantly; also recorded: not associated with a reduction in body weight or food intake”. For the same compound, the “bone mineral density (femur, dual energy X-ray absorptiometry)” value ([3]; HFD 20 weeks) was “did not differ”, the “HMG-CoA reductase enzyme activity in vitro” value (HMG-CoA reductase) was “did not inhibit; also recorded: lack of impact” and the “BMP2-induced ApoB-100 secretion” value (HepG2 cells; BMP2 100 ng/mL) was “blocked; also recorded: prevented the BMP2-mediated induction of ApoB-100 secretion”. The “basal ApoB-100 secretion (absence of BMP2)” value (HepG2 cells) was “reduced basal apolipoprotein B100 (ApoB-100) secretion; also recorded: inhibited ApoB-100 production”.
